Results published in patent US12030867B2, “Hsp90β selective inhibitors” (University of Notre Dame du Lac, priority 2018, dated 2024).
Like-named read-outs stand apart in the source and are kept apart here.

Tests used:
[1] = molecular target: T1, Hsp90β (Homo sapiens (Human), UniProt P08238); conditions: previously reported inhibitors; cited from earlier work
[2] = molecular target: Hsp90α (Homo sapiens (Human), UniProt P07900); experiment: fluorescence polarization (FP) assay, competitive displacement of FITC labeled Geldanamycin; assay type: binding
Procedure: (§1) Once prepared, the compounds were evaluated for their binding affinities against the cytosolic isoforms, Hsp90α and Hsp90β by measuring their ability to competitively displace FITC labeled Geldanamycin (GDA) in a fluorescence polarization assay (apparent Kd's listed in Table 1). […] The alkyne (4k) was investigated to determine whether a linear substituent could project into the subpocket and affect selectivity.

[3] = molecular target: T1, Hsp90β; experiment: as above; assay type: binding
Procedure: as §1

[4] = apparent Kd, FP assay, read-out: Hsp90α Kd
[5] = apparent Kd, FP assay, read-out: Hsp90β Kd

T1 sequence (P08238 whole entry): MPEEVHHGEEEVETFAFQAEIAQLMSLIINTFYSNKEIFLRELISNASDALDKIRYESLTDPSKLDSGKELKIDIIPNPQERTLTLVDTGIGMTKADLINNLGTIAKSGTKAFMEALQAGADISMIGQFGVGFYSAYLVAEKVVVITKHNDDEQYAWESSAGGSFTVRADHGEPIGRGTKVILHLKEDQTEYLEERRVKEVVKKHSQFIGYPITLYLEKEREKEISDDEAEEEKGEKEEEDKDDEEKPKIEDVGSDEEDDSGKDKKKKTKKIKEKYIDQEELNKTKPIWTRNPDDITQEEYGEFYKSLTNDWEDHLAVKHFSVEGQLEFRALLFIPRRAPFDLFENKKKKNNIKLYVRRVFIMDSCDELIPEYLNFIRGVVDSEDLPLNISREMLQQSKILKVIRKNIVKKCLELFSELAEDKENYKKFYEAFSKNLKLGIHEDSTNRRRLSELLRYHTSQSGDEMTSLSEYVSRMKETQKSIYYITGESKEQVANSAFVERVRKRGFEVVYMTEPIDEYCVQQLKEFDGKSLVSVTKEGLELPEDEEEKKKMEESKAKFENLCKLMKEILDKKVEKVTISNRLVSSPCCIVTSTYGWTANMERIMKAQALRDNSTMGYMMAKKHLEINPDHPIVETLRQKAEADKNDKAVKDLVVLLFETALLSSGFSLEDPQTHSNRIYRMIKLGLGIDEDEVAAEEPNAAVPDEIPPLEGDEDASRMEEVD

## CC1(C)CC(=O)c2c(C(F)(F)F)nn(-c3ccc(C(N)=O)c(N[C@H]4CC[C@H](O)CC4)c3)c2C1 [SNX 2112]
[1]
  Hsp90α/Hsp90β isoform profile (in words): equipotent affinity

## Cc1nn(-c2cc(N[C@H]3CC[C@H](O)CC3)c3c(=O)[nH]c(C4CC4)cc3c2)c2c1C(=O)CC(C)(C)C2 [Compound 4h, 3-cyclopropyl-8-(((1r,4r)-4-hydroxycyclohexyl)amino)-6-(3,6,6-trimethyl-4-oxo-4,5,6,7-tetrahydro-1H-indazol-1-yl)isoquinolin-1(2H)-one]
[2]; [4]
  Kd: 1880 ± 280 nM
[3]; FP assay
  affinity for Hsp90β (in words): loss of potency
[3]; [5]
  Kd: 946 ± 38 nM

## Cc1nn(-c2cc(N[C@H]3CC[C@H](O)CC3)c3c(=O)[nH]c(C(C)C)cc3c2)c2c1C(=O)CC(C)(C)C2 [Compound 4c, 8-(((1r,4r)-4-hydroxycyclohexyl)amino)-3-isopropyl-6-(3,6,6-trimethyl-4-oxo-4,5,6,7-tetrahydro-1H-indazol-1-yl)isoquinolin-1(2H)-one]
[2]; [4]
  Kd: 173 ± 36 nM
[3]; [5]
  Kd: 51 ± 8 nM

## CCCc1cc2cc(-n3nc(C)c4c3CC(C)(C)CC4=O)cc(N3CCN(C(=O)OC(C)(C)C)CC3)c2c(=O)[nH]1 [Compound 5e, tert-butyl 4-(1-oxo-3-propyl-6-(3,6,6-trimethyl-4-oxo-4,5,6,7-tetrahydro-1H-indazol-1-yl)-1,2-dihydroisoquinolin-8-yl)piperazine-1-carboxylate]
[2]
  Kd: > 50000 nM
[3]
  Kd: 463 ± 31 nM

## CCCc1cc2cc(-n3nc(C)c4c3CC(C)(C)CC4=O)cc(N3CCNCC3)c2c(=O)[nH]1 [Compound 5d, 8-(piperazin-1-yl)-3-propyl-6-(3,6,6-trimethyl-4-oxo-4,5,6,7-tetrahydro-1H-indazol-1-yl)isoquinolin-1(2H)-one]
[2]; [4]
  Kd: > 50000 nM
[3]; [5]
  Kd: 4470 ± 278 nM

## CCCCc1cc2cc(-n3nc(C)c4c3CC(C)(C)CC4=O)cc(N[C@H]3CC[C@H](O)CC3)c2c(=O)[nH]1 [Compound 4e, 3-butyl-8-(((1r,4r)-4-hydroxycyclohexyl)amino)-6-(3,6,6-trimethyl-4-oxo-4,5,6,7-tetrahydro-1H-indazol-1-yl)isoquinolin-1(2H)-one]
[2]; FP assay
  binding to Hsp90α (in words): did not bind
[2]; [4]
  Kd: > 50000 nM
[3]
  Kd: 186 nM
  selectivity for Hsp90β over Hsp90α: > 300 fold
[3]; FP assay
  affinity for Hsp90β (in words): did not bind
[3]; [5]
  Kd: 156 ± 18 nM

## Cc1cc2cc(-n3nc(C)c4c3CC(C)(C)CC4=O)cc(N[C@H]3CC[C@H](O)CC3)c2c(=O)[nH]1 [Compound 4a, 8-(((1r,4r)-4-hydroxycyclohexyl)amino)-3-methyl-6-(3,6,6-trimethyl-4-oxo-4,5,6,7-tetrahydro-1H-indazol-1-yl)isoquinolin-1(2H)-one]
[2]; [4]
  Kd: 294 ± 23 nM
[3]
  selectivity for Hsp90β over Hsp90α: 3 fold
[3]; [5]
  Kd: 101 ± 3 nM

## Cc1nn(-c2cc(N[C@H]3CC[C@H](O)CC3)c3c(=O)[nH]c(CC(C)C)cc3c2)c2c1C(=O)CC(C)(C)C2 [Compound 4g, 8-(((1r,4r)-4-hydroxycyclohexyl)amino)-3-isobutyl-6-(3,6,6-trimethyl-4-oxo-4,5,6,7-tetrahydro-1H-indazol-1-yl)isoquinolin-1(2H)-one]
[2]; [4]
  Kd: > 50000 nM
[3]; FP assay
  affinity for Hsp90β (in words): decrease in affinity
  selectivity for Hsp90β over Hsp90α (in words): maintained selectivity
[3]; [5]
  Kd: 264 ± 30 nM
